Assay results from PubChem BioAssay AID1626 (SRMLSC, 2009).

Test system: M. tuberculosis H37Rv growth inhibition
Experiment: M. tuberculosis H37Rv growth inhibitors, H37Rv strain (AID 1626)
Settings: for IC90: measured here: IC90 against H37Rv; for CC50: measured here: Vero cell cytotoxicity

SMILES | IC50 [µM] | IC90 [µM] | CC50 [µM]
Cc1cnc(NC(=O)c2cc3c(C)nn(-c4ccccc4)c3s2)s1 | 61 | > 100 | > 40
Cc1ccc(NC(=O)COC(=O)C2=COCCO2)c([N+](=O)[O-])c1 | 6.3 | > 100 | 
c1ccc(OCc2nn3c(-c4n[nH]c5c4CCC5)nnc3s2)cc1 | 1.23 | 6.8 | 
COc1ccccc1/C=C/CN1CCCC(CO)(Cc2cccc(Cl)c2)C1 (centres undefined) | 10.9 | 16.4 | > 40
O=C(CCc1ccc(Oc2cc([N+](=O)[O-])cc([N+](=O)[O-])c2)cc1)N1CCCCCC1 | 7.53 | 15.6 | 37.2
O=[N+]([O-])c1ncn(Cc2c(Cl)cccc2Cl)n1 | 36.6 | > 100 | 
O=[N+]([O-])c1cc(C(F)(F)F)ccc1Oc1cccnc1[N+](=O)[O-] | 1.54 | 1.73 | 
COC(=O)c1cc(/C=C/c2ccccc2)on1 | 1.33 | > 100 | 
CC(C)N=c1cc2n(-c3ccc(Cl)cc3)c3ccccc3nc-2cc1Nc1ccc(Cl)cc1 | < 0.391 | < 0.391 | > 40
CN1C[C@@H]2C(c3ccc(C(F)(F)F)cc3)C3(c4cccnc4)CC2(C3)[C@H]1c1ccccc1 (some centres undefined) | 14.1 | 21.4 | 
CCOc1ccc(N/C(C)=C\C(=O)c2ccc3c(c2)OCCO3)cc1 | 5.85 | > 100 | 
Cc1[nH]n(-c2ccccc2)c(=S)c1C=NCCCN=Cc1c(C)[nH]n(-c2ccccc2)c1=S | < 0.391 | > 100 | 
Cc1ccc(-c2nnc(N3CCN(C(=O)c4ccco4)CC3)c3ccccc23)cc1 | 7.44 | 13.8 | 
COc1ccc(C(CCNCc2ccc(F)cc2)c2ccc(F)cc2)cc1 (centres undefined) | 5.7 | 6.62 | 23.2
CCCOC(=O)CSc1nnc(-c2cc(OC)c(OC)c(OC)c2)o1 | 0.728 | 1.83 | 
Cc1[nH]n2c(=O)c3c(nc2c1-c1ccc(Cl)cc1)CCC3 | 13.3 | 31 | 19.6
CCCOC(=O)CSc1nc(N)c(C#N)c(-c2ccco2)c1C#N | < 0.195 | 0.907 | 
N=C1SCC(=O)N1c1ncc(Cc2ccccc2Cl)s1 | < 0.391 | 15.9 | > 40
CC(C)NCC(O)Cn1c2c(c3ccccc31)CCc1c-2cnn1-c1ccccc1 (centres undefined) | 10.1 | 13.6 | 7.97
Cc1c([N+](=O)[O-])cc(C(=O)NCc2ccc(F)cc2)cc1[N+](=O)[O-] | < 0.195 | > 100 | 
CNC(=O)c1nnsc1S(=O)(=O)c1ccc(Cl)cc1 | 21.6 | 22.2 | 8.55

SMILES | IC50 [µM] | IC90 [µM] | CC50 [µM]
Cc1ccc(S(=O)(=O)NC(=O)Nc2nc(-c3ccc(F)c(F)c3)cs2)cc1 | 6.15 | > 100 | 
OC(c1cc(-c2ccc(Cl)cc2)nc2ccccc12)C1CCCCN1 (centres undefined) | 4.52 | 13.5 | 7.35
O=C(/C=C/c1ccccc1)C1C(=O)c2ccccc2C1=O | 23.5 | 26.5 | 32.1
CCOC(=O)C1(CCOc2ccccc2)CCN(C(=O)c2ccc(-n3cccn3)cc2)CC1 | 27.2 | > 100 | > 40
CC(C)(C)c1cc(NCc2ccccn2)n2ncc(-c3ccc(Cl)cc3)c2n1 | 0.655 | 6.15 | > 40
CCNC(=O)COC(=O)c1ccc(-c2nc3ccccc3s2)s1 | 7.63 | 15 | > 40
CCOC(=O)c1ccc(N/C=C/C(=O)c2ccc(OC)c(OC)c2)cc1 | 3.44 | > 100 | 
O=C(Oc1ccc(Cl)c2cccnc12)C12CC3CC(CC(C3)C1)C2 | 4.52 | 5.77 | > 40
CCOc1ccc2nc(NC(=O)CSc3nc(SC)ns3)sc2c1 | 2.95 | > 100 | > 40
O=C(CSCc1ccc(Cl)cc1)Nc1ccc(-c2nnc(-c3ccccc3)o2)cc1 |  |  | 6.18
CCc1ccc(/C=C/C(=O)C2C(=O)c3ccccc3C2=O)cc1 | 1.76 | 2.92 | > 40
CSc1nc2nc(C)c(C/C=C/c3ccccc3)c(=O)n2[nH]1 | 11.4 | > 100 | 
Cc1ccc(N=C/C(C(=O)C(F)(F)F)=C(\O)c2ccco2)cc1Cl |  | > 100 | 
Cn1c(-c2c(N)n(-c3ccccc3)c3nc4ccccc4nc23)nc2ccccc21 | 0.331 | > 100 | > 40
Cc1ccc(Nc2cc(C)nc(NCc3ccccc3)n2)cc1 | 6.69 | 9.45 | > 40
CS(=O)(=O)Cc1nc2ccccc2oc1=O | 1.45 | 2.01 | > 40
Nc1ccccc1SCC(=O)Nc1nc(-c2ccccc2)cs1 |  | > 100 | > 40
O=[N+]([O-])c1cc(C=Nc2ccc3ccccc3c2)ccc1Br | 5.95 | > 100 | 
O=C(COc1ccccc1[N+](=O)[O-])c1ccccc1 | 17 | > 100 | 30
CCOC(=O)COc1ccc(-c2nnc(-c3ccccc3)o2)cc1 | 0.409 | 3.76 | 
CC(C)C(=O)N1CCN(c2ccc(NC(=O)c3ccc4c(c3)OCCO4)cc2Cl)CC1 |  | > 100 | 19.8

SMILES | IC50 [µM] | IC90 [µM] | CC50 [µM]
Nc1ccccc1Nc1cc(-c2ccccc2)[nH]n1 |  | > 100 | 
O=C(CCC(=O)Nc1ccc(Oc2ccccc2)cc1)NCCO |  | > 100 | 
CCOC(=O)COc1ccc2c(=O)c(-c3ccccc3OC)coc2c1 | 1.06 | 2.45 | 
CCCCOC(=O)CSc1nc(N)c(C#N)c(-c2ccc(OC)cc2)c1C#N | 1.14 | 2.39 | 
O=c1[nH][nH]cc1C=Nc1ccc(Oc2ccccc2)cc1 | 15.4 | > 100 | 
CCOC(=O)c1cc(COc2cc(Cl)cc(Cl)c2)on1 | 3.01 | 21.6 | 
O=C(Nc1nnc(-c2ccc3c(c2)OCCO3)o1)C1CCCCC1 |  | > 100 | 
Cc1ncn(-c2ccc(C(=O)Oc3ccccc3)cn2)n1 | 12.3 | > 100 | 35.3
c1ccc(N2CCN(c3nc(NCc4ccco4)c4ccccc4n3)CC2)cc1 | 9.66 | 14.4 | > 40
O=C(c1cnc(N2CCN(c3ccccn3)CC2)c2ccccc12)N1CCN(c2cccc(Cl)c2)CC1 | 8.67 | > 100 | > 40
CCc1ccc(NC(=O)CSc2nnc(-c3ccccn3)n2C)cc1 |  | > 100 | 
CN1CCN(c2nc(-c3ccccc3)nc3c2oc2ccccc23)CC1 | 5.55 | 10.5 | 30
CCc1ccc(CCC(=O)Nc2ccc(C)c(C)c2)o1 | 14.8 | > 100 | 
CCOC(=O)c1ccc(N2CSC3=C(C#N)C(c4ccc(OC)cc4OC)CC(=O)N3C2)cc1 (centres undefined) | 41.8 | > 100 | 
Cc1cccc(CN2C(=O)[C@@H]3Cc4c([nH]c5ccccc45)C(C)(C)N3C2=O)c1 | 8.69 | 14.3 | > 40
O=[N+]([O-])c1ccc(-c2nc(C(Cl)Cl)c3ccccc3n2)cc1 | < 0.195 | < 0.195 | < 0.078
Cc1ccc(-c2nnc3sc(CCc4ccccc4)nn23)cc1 | 1.63 | 6.83 | 
O=C(COC(=O)c1ccc(-c2ccc([N+](=O)[O-])cc2)o1)NC(=O)NC12CC3CC(CC(C3)C1)C2 | 10.3 | > 100 | 
O=C1/C(=C/c2ccccc2[N+](=O)[O-])COc2ccccc21 | 2.9 | 3.25 | 5.95
CCCCCCOC(=O)c1ccc(NC(=O)c2cc(OC)c(OC)c(OC)c2Br)cc1 | 5.27 | 8.11 | > 40
Cc1nc(NC(=O)CSc2nnc(-c3ccc4c(c3)OCO4)o2)c(Cl)cc1Cl |  | > 100 | 

SMILES | IC50 [µM] | IC90 [µM] | CC50 [µM]
O=C(Nc1nnc(-c2cccs2)o1)c1cccc(C(F)(F)F)c1 | < 0.391 | 11.9 | 20.6
Cc1ccc(Oc2cc(NC(=O)CCCn3nc([N+](=O)[O-])cc3C)cc([N+](=O)[O-])c2)cc1 | 12.1 | 13.6 | > 40
COc1ccc(N/C=C/C(=O)c2sc(-c3ccccc3)nc2C)cc1 | 69.2 | > 100 | > 40
Cc1ccc2nc(N(CCCN(C)C)C(=O)c3ccc4c(c3)CCCC4)sc2c1 | 8.72 | 11.8 | 22.6
Cc1cc(C)n(-c2nc(NC(C)C)nc(NC(C)C)n2)n1 | 0.961 | 3.94 | > 40
Cc1ccc(C2=Nc3ccccc3SC(c3cccc([N+](=O)[O-])c3)C2)cc1 (centres undefined) | 3.71 | 5.74 | 33
Cc1ccc(C(=O)CC(=O)c2cc(Cl)ccc2O)cc1 | 3.48 | 4.67 | 20.2
Cc1ccc2nc(Cl)c3nnnn3c2c1 | 11.9 | 17 | > 40
COc1ccc(OC(=O)c2cnn(-c3ccccc3)c2C)cc1 | 71.2 | > 100 | 
COC(=O)CSc1nc(N)c(C#N)c(CC(C)C)c1C#N | 2.91 | 57.5 | 
COc1ccc(N2CCN(c3nc(NC(C)(C)C)nc(N4CCCCC4)n3)CC2)cc1 | 3.75 | 5.86 | > 40
Cc1cccc(NC(=O)/C=C/c2ccc([N+](=O)[O-])s2)c1 | < 0.391 | < 0.391 | 6.99
CCCn1c(=N)c(C(=O)NCc2ccc3c(c2)OCO3)cc2c(=O)n3cccc(C)c3nc21 | 19.6 | 31.7 | > 40
O=C(OCC(=O)N1CCCCC1)c1cc2ccccc2cc1O | 1.62 | 10.6 | 
Cc1[nH]n2c(=O)c3c(nc2c1-c1ccccc1)CCCC3 | 2.89 | 4.05 | 22.8
O=[N+]([O-])c1cc(S(=O)(=O)Nc2ccccc2)ccc1N1CCN(c2ccccc2)CC1 | 14.5 | 25.5 | 28.2
COc1ccccc1/C=C/C(=O)Oc1cccc2cccnc12 | 2.8 | 3.05 | 37.9
CSc1ccc2c(c1)C(N1CCN(C)CC1)Cc1ccccc1S2 (centres undefined) | 8.54 | 10.9 | 20.9
